Data published in patent publication US10092563B2, “Phosphatidylinositol 3-kinase inhibitors” (Gilead Sciences, Inc., priority 2014, dated 2018).
pIC50: −log10 of the molar value.

How the values were obtained:
Experiment in all cases: TR-FRET enzymatic assay of PI3K isoforms
Format in all cases: biochemical
PI3Kγ = PI3Kγ (Homo sapiens (Human), UniProt P48736); details: 2× Km ATP, 30 minutes at 25° C.
Protocol: (§1) The compounds of formula (I) were characterized for their enzymatic activity against the PI3K isoforms. The activities were measured using a time-resolved fluorescence resonance energy transfer (TR-FRET) assay.

PI3Kδ = PI3Kδ (Homo sapiens (Human), UniProt O00329); details: 2× Km ATP, 30 minutes at 25° C.
Protocol: as §1

PI3Kβ = PI3Kβ (Homo sapiens (Human), UniProt P42338); details: for PI3Kγ/PI3Kβ ratio: ratio of IC50 PI3Kγ to IC50 PI3Kβ (fold)
Protocol: as §1

PI3Kδ, sequence (O00329 whole entry): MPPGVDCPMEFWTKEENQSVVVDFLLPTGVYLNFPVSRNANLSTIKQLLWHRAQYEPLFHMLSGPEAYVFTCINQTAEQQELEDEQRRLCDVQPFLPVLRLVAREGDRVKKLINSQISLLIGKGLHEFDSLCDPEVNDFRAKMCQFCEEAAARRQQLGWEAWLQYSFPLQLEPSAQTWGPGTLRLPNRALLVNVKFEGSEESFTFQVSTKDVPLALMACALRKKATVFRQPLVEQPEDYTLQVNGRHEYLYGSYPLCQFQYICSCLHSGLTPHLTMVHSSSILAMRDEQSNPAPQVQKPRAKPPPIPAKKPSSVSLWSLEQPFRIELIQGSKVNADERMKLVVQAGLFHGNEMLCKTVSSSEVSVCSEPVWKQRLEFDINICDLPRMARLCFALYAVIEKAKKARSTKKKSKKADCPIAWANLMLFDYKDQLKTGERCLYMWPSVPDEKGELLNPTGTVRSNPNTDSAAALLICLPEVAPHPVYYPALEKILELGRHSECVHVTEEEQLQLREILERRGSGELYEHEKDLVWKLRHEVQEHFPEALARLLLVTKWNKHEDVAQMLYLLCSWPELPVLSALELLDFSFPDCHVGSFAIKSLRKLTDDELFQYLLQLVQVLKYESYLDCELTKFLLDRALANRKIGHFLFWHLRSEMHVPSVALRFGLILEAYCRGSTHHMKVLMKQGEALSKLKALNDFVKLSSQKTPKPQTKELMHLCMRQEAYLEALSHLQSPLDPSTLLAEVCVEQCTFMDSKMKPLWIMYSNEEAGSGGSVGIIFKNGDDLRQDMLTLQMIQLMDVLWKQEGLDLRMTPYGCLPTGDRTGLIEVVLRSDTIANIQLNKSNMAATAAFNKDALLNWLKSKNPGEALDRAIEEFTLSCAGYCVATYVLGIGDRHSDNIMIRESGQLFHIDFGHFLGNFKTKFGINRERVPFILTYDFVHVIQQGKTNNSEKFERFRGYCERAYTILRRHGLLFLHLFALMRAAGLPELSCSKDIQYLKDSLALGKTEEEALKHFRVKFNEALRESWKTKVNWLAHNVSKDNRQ
PI3Kδ, sequence (P27986 whole entry partner): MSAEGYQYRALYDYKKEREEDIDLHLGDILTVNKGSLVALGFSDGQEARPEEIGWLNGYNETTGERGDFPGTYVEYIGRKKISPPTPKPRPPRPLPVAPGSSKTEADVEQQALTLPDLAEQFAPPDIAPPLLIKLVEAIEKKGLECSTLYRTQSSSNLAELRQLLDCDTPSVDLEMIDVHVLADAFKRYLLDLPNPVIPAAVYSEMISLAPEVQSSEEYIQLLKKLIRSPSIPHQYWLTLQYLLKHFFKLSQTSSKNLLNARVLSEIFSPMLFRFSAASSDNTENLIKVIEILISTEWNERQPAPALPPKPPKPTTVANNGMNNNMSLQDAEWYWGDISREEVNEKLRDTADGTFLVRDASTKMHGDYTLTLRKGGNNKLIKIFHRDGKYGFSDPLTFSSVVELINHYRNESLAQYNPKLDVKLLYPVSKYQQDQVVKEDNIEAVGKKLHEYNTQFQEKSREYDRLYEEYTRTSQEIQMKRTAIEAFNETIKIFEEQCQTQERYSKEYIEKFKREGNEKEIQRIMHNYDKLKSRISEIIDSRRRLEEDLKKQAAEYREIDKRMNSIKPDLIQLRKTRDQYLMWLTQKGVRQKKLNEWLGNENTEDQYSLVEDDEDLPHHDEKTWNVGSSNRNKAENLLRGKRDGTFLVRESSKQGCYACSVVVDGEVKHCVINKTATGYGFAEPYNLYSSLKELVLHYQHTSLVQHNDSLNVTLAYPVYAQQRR
PI3Kβ, sequence (P42338 whole entry): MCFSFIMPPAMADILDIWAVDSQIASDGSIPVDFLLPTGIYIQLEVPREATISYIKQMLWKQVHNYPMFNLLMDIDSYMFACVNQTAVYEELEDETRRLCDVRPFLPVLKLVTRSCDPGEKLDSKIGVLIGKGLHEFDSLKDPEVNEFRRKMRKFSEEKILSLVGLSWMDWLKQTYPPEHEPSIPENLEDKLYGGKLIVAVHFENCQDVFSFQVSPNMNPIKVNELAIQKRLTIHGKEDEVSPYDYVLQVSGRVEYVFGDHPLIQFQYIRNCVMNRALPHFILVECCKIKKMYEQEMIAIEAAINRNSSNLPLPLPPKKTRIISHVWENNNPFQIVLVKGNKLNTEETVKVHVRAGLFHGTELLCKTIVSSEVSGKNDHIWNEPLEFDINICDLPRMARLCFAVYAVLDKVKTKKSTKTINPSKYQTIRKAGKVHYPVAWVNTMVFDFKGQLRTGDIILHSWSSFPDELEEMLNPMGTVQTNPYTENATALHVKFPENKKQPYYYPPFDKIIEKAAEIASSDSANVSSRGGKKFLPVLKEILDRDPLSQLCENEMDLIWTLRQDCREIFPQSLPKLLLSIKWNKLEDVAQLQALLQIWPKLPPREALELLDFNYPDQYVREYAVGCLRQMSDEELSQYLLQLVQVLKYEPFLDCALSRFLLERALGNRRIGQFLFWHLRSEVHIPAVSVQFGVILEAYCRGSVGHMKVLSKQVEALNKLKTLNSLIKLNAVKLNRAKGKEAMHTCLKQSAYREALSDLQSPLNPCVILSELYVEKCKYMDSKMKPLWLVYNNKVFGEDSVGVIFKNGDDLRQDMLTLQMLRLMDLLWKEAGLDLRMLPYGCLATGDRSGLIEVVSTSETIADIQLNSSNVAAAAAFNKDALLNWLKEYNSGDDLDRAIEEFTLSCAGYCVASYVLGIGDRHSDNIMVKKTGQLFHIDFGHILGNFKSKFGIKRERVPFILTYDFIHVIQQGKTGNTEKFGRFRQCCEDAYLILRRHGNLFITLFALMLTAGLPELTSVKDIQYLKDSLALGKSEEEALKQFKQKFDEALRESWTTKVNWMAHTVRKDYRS
PI3Kβ, sequence (P27986 whole entry partner): as the sequence (P27986 whole entry partner) above
PI3Kγ, sequence (P48736 whole entry, canonical isoform): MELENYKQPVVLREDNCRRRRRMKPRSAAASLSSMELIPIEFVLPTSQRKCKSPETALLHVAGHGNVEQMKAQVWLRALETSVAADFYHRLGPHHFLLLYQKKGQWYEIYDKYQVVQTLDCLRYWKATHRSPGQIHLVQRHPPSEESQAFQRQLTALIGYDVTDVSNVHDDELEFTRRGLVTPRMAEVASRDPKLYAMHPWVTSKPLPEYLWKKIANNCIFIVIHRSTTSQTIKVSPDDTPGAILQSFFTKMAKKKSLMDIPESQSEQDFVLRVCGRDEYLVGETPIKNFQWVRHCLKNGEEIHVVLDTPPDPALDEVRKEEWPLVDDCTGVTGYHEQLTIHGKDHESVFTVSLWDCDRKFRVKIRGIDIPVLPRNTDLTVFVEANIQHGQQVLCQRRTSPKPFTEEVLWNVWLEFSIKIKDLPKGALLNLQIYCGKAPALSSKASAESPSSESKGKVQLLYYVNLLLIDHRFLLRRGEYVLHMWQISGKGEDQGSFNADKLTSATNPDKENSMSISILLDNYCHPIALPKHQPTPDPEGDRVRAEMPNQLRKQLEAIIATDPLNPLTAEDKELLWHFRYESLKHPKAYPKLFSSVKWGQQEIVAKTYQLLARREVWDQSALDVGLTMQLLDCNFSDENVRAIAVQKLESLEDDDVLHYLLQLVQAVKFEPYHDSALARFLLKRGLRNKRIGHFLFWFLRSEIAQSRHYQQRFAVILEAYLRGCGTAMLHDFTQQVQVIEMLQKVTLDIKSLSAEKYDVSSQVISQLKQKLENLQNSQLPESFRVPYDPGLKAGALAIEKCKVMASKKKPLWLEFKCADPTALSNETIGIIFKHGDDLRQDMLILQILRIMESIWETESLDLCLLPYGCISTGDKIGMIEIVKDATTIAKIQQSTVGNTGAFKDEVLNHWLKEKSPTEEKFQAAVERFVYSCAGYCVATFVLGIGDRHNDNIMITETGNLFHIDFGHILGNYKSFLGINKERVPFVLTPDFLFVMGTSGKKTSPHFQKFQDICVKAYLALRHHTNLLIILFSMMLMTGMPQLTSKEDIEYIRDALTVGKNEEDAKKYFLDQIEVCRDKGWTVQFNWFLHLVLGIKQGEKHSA
PI3Kγ, sequence (Q8WYR1 whole entry partner, canonical isoform): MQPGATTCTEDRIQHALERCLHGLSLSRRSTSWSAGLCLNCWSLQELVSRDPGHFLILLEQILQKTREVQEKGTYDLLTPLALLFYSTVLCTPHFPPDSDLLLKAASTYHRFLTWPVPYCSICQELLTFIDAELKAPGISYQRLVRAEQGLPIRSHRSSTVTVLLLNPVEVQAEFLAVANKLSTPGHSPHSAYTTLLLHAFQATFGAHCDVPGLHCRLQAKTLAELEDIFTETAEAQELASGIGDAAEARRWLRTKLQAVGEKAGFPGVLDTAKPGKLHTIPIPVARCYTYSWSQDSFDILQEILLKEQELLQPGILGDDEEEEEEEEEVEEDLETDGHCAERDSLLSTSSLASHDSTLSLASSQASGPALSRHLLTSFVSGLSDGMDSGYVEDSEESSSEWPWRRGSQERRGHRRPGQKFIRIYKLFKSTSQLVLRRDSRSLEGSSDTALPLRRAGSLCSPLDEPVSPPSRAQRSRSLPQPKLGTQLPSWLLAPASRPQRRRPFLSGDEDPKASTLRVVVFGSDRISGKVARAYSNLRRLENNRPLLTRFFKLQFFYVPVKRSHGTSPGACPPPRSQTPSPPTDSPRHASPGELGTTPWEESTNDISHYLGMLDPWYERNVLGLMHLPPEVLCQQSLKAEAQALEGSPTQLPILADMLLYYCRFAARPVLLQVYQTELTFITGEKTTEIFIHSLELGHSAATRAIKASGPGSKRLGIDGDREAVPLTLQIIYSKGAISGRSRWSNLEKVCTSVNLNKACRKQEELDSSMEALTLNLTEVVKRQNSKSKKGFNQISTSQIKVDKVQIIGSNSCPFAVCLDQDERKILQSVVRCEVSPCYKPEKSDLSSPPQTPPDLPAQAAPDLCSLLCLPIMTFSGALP

Row | pIC50 (PI3Kγ) | pIC50 (PI3Kδ) | pIC50 (PI3Kβ) | PI3Kγ/PI3Kβ ratio (PI3Kβ) | PI3Kγ/PI3Kβ ratio (PI3Kβ; listed as (S)-2,4-diamino-6-(1-(5-chloro-4-oxo-3-phenyl-3,4-dihydroquinazolin-2-yl)ethyl)) | Structure (SMILES)
1 | 5.55 | 8.40 | 8.52 | – | – | C[C@H](Nc1nc(N)nc(N)c1C#N)c1nc2c(F)ccc(Cl)c2c(=O)n1C1[C@H]2CNC[C@@H]12 (stereo partly drawn) [Compound 17, 4-(((1S)-1-(3-((1R,5S)-3-azabicyclo[3.1.0]hexan-6-yl)-5-chloro-8-fluoro-4-oxo-3,4-dihydroquinazolin-2-yl)ethyl)amino)-2,6-diaminopyrimidine-5-carbonitrile]
2 | 5.59 | 8.22 | 8.70 | – | – | Cc1nc(N)nc(N[C@@H](C)c2nc3c(F)ccc(Cl)c3c(=O)n2C2[C@H]3CNC[C@@H]23)c1C#N (stereo partly drawn) [Compound 16, 4-(((1S)-1-(3-((1R,5S)-3-azabicyclo[3.1.0]hexan-6-yl)-5-chloro-8-fluoro-4-oxo-3,4-dihydroquinazolin-2-yl)ethyl)amino)-2-amino-6-methylpyrimidine-5-carbonitrile]
3 | < 5.00 | 6.08 | – | – | – | C[C@H](Nc1nc(N)nc(N)c1C#N)c1nc2cccc(Cl)c2c(=O)n1[C@@H]1CCCNC1 [Compound 27, 2,4-diamino-6-(((S)-1-(5-chloro-4-oxo-3-((R)-piperidin-3-yl)-3,4-dihydroquinazolin-2-yl)ethyl)amino)pyrimidine-5-carbonitrile]
4 | – | – | – | 0.6 | less than 1 | C[C@H](Nc1nc(N)nc(N)c1C#N)c1nc2cccc(Cl)c2c(=O)n1-c1ccccc1 [Compound X, (S)-2,4-diamino-6-((1-(5-chloro-4-oxo-3-phenyl-3,4-dihydroquinazolin-2-yl)ethyl)amino)pyrimidine-5-carbonitrile, reference compound]
